Peptide text beside a SMILES is read from it. * marks the point of attachment. MeOSuc = COC(=O)CCC(=O)*; Cbz = O=C(OCc1ccccc1)*; Boc = CC(C)(C)OC(=O)*; CF3 = FC(F)(F)*
Legend:
[1] = target: Cathepsin G (Rattus norvegicus); assay: Binding affinity against rat Cathepsin G
[2] = target: Neutrophil elastase (Homo sapiens) (UniProt P08246); assay: Binding affinity against human Elastase
[3] = Binding affinity against human Elastase for more active diasteriomer

Sequence of Neutrophil elastase (Homo sapiens) (P08246 whole entry, looked up): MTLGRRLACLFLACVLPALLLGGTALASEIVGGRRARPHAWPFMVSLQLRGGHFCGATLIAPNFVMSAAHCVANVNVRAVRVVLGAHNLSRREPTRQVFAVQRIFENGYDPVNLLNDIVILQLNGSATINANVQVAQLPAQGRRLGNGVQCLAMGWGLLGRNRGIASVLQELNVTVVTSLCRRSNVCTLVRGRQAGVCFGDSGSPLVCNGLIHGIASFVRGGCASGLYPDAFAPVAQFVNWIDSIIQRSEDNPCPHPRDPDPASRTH

Row | Structure (SMILES) | Ki [3] [nM] | further results
1 | COC(=O)CCC(=O)N[C@H](C(=O)N1CCC[C@H]1C(=O)N[C@@H](Cc1ccccc1)C(=O)C(F)(F)F)C(C)C (MeOSuc-Val-Pro-Phe-CF3) | – | Ki [1]: 200 nM
2 | CC(=O)N[C@@H](C)C(=O)N[C@@H](C)C(=O)N1CCC[C@H]1C(=O)N[C@@H](C)C(=O)C(F)(F)F (Ac-AAPA-CF3) | – | Ki [2]: 24000 nM
3 | COC(=O)C(=O)[C@H](C)NC(=O)[C@@H]1CCCN1C(=O)[C@H](C)NC(=O)[C@@H]1CCCN1C(C)=O | 850 | –
4 | CC(C)[C@H](NC(=O)[C@@H]1CCCN1C(=O)[C@H](C)NC(=O)[C@H](C)NC(=O)OCc1ccccc1)C(=O)C(F)(F)F (Cbz-AAPV-CF3) | 1 | –
5 | CC(C)[C@H](NC(=O)[C@@H]1CCCN1C(=O)[C@H](C)NC(=O)[C@H](C)NC(=O)OC(C)(C)C)C(=O)C(F)(F)F (Boc-AAPV-CF3) | 44 | –

Now from value to molecule, other results behind:

Row | Ki [3] [nM] | Structure (SMILES) | further results
6 | 0.58 | COC(=O)CCC(=O)NCCCC[C@H](NS(=O)(=O)C12CC3CC(CC(C3)C1)C2)C(=O)N1CCC[C@H]1C(=O)N[C@H](C(=O)C(F)(F)F)C(C)C | –
7 | 4300 | CCOC(=O)C(F)(F)C(=O)[C@@H](NC(=O)[C@@H]1CCCN1C(=O)[C@H](C)NC(=O)[C@H](C)NC(=O)CCC(=O)OC)C(C)C | –

Source: BindingDB's records for doi:10.1021/jm00163a063 (Merrell Dow Research Institute, 1990)
